# From patent US10532068B2, “Dual molecular delivery of oligonucleotides and peptide containing conjugates” (Merck Sharp & Dohme Corp., priority 2013, dated 2020)
# Strand notation (5' to 3'): a small letter for the sugar, then the base; units joined by * are phosphorothioate-linked, units joined directly phosphodiester-linked; [ ] holds rarer units or linkages, { } end groups; capitals alone tell only the bases. {NH2C6-invAb} = cap: inverted abasic residue carrying an aminohexyl phosphate (attachment handle); [invAb] = inverted abasic unit; m = 2'-O-methyl; f = 2'-fluoro
# Key:
# CTNNB1 = assay: In vivo evaluation in mice: liver mRNA knockdown measurement (TaqMan qPCR); parameters: species or system CD-1 mice; conditions: for time course of mRNA KD in DMD format compared to 5-fold higher dose of siRNA-III alone: FIG. 4, sequential dosing, peptide 15 min after siRNA
# Description: (§1) Female CD-1 mice (Charles River) were injected in accordance with either a sequential dosing paradigm or a co-dosing paradigm. In the sequential dosing paradigm, the targeted siRNA (SCE) is dosed at t=0 and the targeted peptide is separately dosed up to 2 hr before the SCE (−2 hr) or up to 24 hr after the SCE (+24 hr). In the co-dosing paradigm, the SCE and peptides are co-formulated and dosed together in the same formulation as a single injection at t=0. The mice were dosed either by intravenous (i.v.) or subcutaneous (s.c.) injection of SCE and peptide. For the i.v. doses, the compounds were injected into the tail vein of the mice. For the s.c. doses, the compounds were injected in the subcutaneous space on the back of the mouse between the shoulder blades. At the indicated harvest times (measured from t=0 when the siRNA was dosed, regardless of when the peptide was dosed), the animals were sacrificed and 3 mm liver punches were collected, preserved in RNAlater (Ambion), and stored at 4° C. Separate 5 mm liver punches were collected, placed in 96-well plates, frozen on dry ice, and stored at −80° C. until use.
# The 3 mm liver punches were removed from RNAlater and homogenized in Trizol (Invitrogen) using a bead mill tissue lyser (Qiagen); disruption was performed for two 5-minute cycles at 30 Hz. RNA extraction was performed using 1-bromo-2-chloropropane (Acros Organics) and total RNA was isolated from the aqueous phase using the MagMax RNA isolation method (Ambion). […] TaqMan qPCR analysis was performed with an ABI 7900 Real-Time PCR System using TaqMan Fast Advanced Master Mix (Applied Biosystems). All TaqMan probes and primers for CTNNB1 and PPIB (housekeeping gene) were purchased from Applied Biosystems as pre-validated gene expression assays. Results are calculated by the comparative Ct method, where the difference between the CTNNB1 Ct value and the PPIB Ct value (ΔCt) is calculated and then further normalized relative to the PBS control by taking a second difference (ΔΔCt), as described previously (1).
# [1] = siRNA metabolic stability (FIG. 6 legend); conditions: order siRNA-I>siRNA-V>siRNA-VI
# RISC = molecular target: T1, RISC (Mus musculus, UniProt Q8CJG0); assay: Quantitation of siRNA bound to RISC in mouse liver (Ago2 immunoprecipitation, stem-loop qPCR); format: in vivo, CD-1 mice; conditions: FIG. 5
# T1 construct: from tissue; host or cells: liver of female CD-1 mice
# T1 sequence (Q8CJG0 whole entry): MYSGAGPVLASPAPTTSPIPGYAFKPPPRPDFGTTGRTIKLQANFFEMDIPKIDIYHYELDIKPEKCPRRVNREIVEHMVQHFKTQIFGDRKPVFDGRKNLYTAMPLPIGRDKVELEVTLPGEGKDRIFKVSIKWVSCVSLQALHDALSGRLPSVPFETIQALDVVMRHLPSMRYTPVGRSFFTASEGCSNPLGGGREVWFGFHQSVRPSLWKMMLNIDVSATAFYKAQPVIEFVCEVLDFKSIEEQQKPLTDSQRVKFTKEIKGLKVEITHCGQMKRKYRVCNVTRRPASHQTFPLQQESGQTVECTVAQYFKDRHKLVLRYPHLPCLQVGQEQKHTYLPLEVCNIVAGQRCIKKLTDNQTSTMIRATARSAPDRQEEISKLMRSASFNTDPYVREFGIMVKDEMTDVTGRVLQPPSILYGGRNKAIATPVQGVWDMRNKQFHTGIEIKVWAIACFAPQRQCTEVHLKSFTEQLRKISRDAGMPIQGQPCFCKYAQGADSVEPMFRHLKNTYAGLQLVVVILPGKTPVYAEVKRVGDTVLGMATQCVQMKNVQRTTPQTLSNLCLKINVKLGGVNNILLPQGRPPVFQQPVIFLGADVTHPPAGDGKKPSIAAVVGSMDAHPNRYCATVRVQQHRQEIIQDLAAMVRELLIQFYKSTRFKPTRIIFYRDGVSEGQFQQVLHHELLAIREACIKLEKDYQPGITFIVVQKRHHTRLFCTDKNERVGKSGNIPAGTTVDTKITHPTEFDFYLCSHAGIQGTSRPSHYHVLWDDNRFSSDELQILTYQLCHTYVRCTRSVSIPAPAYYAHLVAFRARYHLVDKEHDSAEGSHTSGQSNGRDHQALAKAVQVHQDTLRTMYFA
# Description: as §1, with “use. […]” for “use.”
substance,measurement,setting,value
"siRNA-I: CTNNB1 ds siRNA, passenger SEQ ID NO 1803, guide SEQ ID NO 1804 (sense {NH2C6-invAb}-mCmUfGmUmUfGfGfAmUmUfGfAmUmUmCfGfAfAfAmU*mU[invAb]; guide mU*fU*mU*fCmGfAmAfUmCfAmAfUmCfCmAfAmCfAmGmU*mU; targeting ligand attached via linker, site not given here)",time course of mRNA KD in DMD format compared to 5-fold higher dose of siRNA-III alone,CTNNB1,faster and greater KD
same,effect of the timing of peptide dose on activity,"CTNNB1; FIG. 6, peptide within 2 hr before up to 24 hr after siRNA dose",does not significantly change the activity
same,siRNA stability (metabolic stability),[1],highly stable
"siRNA-III: CTNNB1 ds siRNA, passenger SEQ ID NO 1803, guide SEQ ID NO 1806 (vinylPmoeT) (sense CUGUUGGAUUGAUUCGAAAUU; guide TUUCGAAUCAAUCCAACAGUU; vinylphosphonate MOE T; (1)..(1) aminohexyl phosphate inverted abasic cap; (1)..(2) 2′-O-methyl; (3)..(3) 2′-deoxy-2′-fluoro; (4)..(5) 2′-O-methyl; (6)..(8) 2′-deoxy-2′-fluoro; (9)..(10) 2′-O-methyl; (11)..(12) 2′-deoxy-2′-fluoro; (13)..(15) 2′-O-methyl; (16)..(19) 2′-deoxy-2′-fluoro; (20)..(21) 2′-O-methyl; (20)..(21) phosphorothioate internucleotide linkage; (21)..(21) inverted abasic cap; (1)..(1) terminal vinyl phosphate; (1)..(1) 2′-methoxyethoxy; (2)..(21) ribonucleotide unmodified or modified as described for this sequence; (2)..(2) 2′-deoxy-2′-fluoro; (3)..(3) 2′-O-methyl; (4)..(4) …)",time course of RISC loading,RISC,faster RISC loading
same,time course of mRNA KD in DMD format compared to 5-fold higher dose of siRNA-III alone,CTNNB1,faster and greater KD
"siRNA-V: CTNNB1 ds siRNA, passenger SEQ ID NO 1803, guide SEQ ID NO 1808 (sense {NH2C6-invAb}-mCmUfGmUmUfGfGfAmUmUfGfAmUmUmCfGfAfAfAmU*mU[invAb]; guide mUfUmUfCmGfAmAfUmCfAmAfUmCfCmAfAmCfAmGmU*mU)",activity (KD),"CTNNB1; FIG. 6, peptide dose times within 2 hr (before or after) the siRNA",~25%
same,siRNA stability (metabolic stability),[1],moderately stable
